From US20220233534A1, “CERDULATINIB-CONTAINING TOPICAL SKIN PHARMACEUTICAL COMPOSITIONS AND USES THEREOF” (DERMAVANT SCIENCES GMBH, priority 2019, published 2022)

Tests used:
[1] = system: DNCB-induced atopic dermatitis NC/Nga mouse; experiment: DNCB-induced atopic dermatitis in the NC/Nga mouse model; assay type: in vivo
Experimental: Atopic dermatitis was induced by repeated application of DNCB (1-chloro-2,4-dinitrobenzene) to the dorsal skin of the ears/back. […] Lesions were evaluated on days 2, 8, 11, and 14.
Macroscopic lesion severity scores are depicted in FIG. 7. Macroscopic skin lesion severity was measured on the indicated Study Days by assessing (0-3 scale) the presence of erythema, edema, excoriation/erosion, and dryness scaling on the ears, neck, and dorsal skin of animals.
Serum IgE levels are depicted in FIG. 8. Serum samples obtained on Study Day 15 were utilized for IgE quantitation. Select cytokine data from the study are depicted in FIG. 9. Skin samples harvested on Day 15 were analyzed by LUMINEX for inflammatory cytokine levels for IL-4, IL-5, IL-13, and IL-31.

[2] = system: vitiligo mouse model; experiment: Study DMVT-502-9025 mouse model of vitiligo; assay type: in vivo
Experimental: The model mimics human vitiligo by inducing epidermal depigmentation with autoreactive CD8+ T-cell accumulation. A schematic of the model is depicted in FIG. 15.
Ten mice were used in the study: three REX3 reporter mice for cytokines CXCL9 and CXCL10 and seven SCF (stem cell factor) mice. The vitiligo study timeline is depicted in FIG. 16. The following assessments were performed during the study:
Blinded scoring of ears, tail, nose, and ventral feet (0-5 scale)
Epidermal, dermal, spleen, and lymph node PMEL (premelanosome protein) cell count
Epidermal/dermal APC (antigen-presenting cell) count
Keratinocyte Cytokine Expression

[3] = 60 mg/kg once daily oral, 5 weeks
[4] = 30 and 60 mg/kg once daily oral, 5 weeks

CCS(=O)(=O)N1CCN(c2ccc(Nc3ncc(C(N)=O)c(NC4CC4)n3)cc2)CC1 [DMVT-502, Cerdulatinib]
serum IgE levels ([1]; topical therapy, Study Day 15): trends towards reduction | pro-inflammatory cytokine levels in skin (IL-4, IL-5, IL-13, IL-31) ([1]; topical treatment, Day 15, LUMINEX): limited suppression | APCs in the dermal skin compartment and Langerhans cells in the epidermal skin compartment compared with vehicle [2, 3]: significantly reduced | CD3+, CD8− T-cell counts in the spleen [2, 3]: significantly reduced | PMEL T-cell counts in dermis and blood [2, 3]: significantly reduced | host T-cell counts in blood [2, 3]: significantly decreased | APC counts in lymph nodes and the spleen compared with vehicle [2, 4]: significantly reduced | PMEL T-cell counts in the epidermis and dermis compared with vehicle [2, 4]: significantly reduced | host-derived total T-cell counts in the spleen [2, 4]: significantly reduced | vitiligo scores compared with vehicle controls [2, 4]: significantly decreased | lymph node or spleen PMEL T cells ([2]; 30 or 60 mg/kg once daily oral, 5 weeks): no significant differences | CXCL9, CXCL10, and dual expression in keratinocytes compared with vehicle ([2]; SCF/REX3 mice): trends towards reduced | CXCL9 and CXCL10 expression in lymph node APCs ([2]; once daily oral, 5 weeks): Reduced | total keratinocyte counts between treatment groups ([2]; once daily oral, 5 weeks): No decrease
